Measured values taken from patent US20240368163A1, “COMPOUNDS AND METHODS FOR MODULATING SPLICING” (REMIX THERAPEUTICS INC., priority 2021, published 2024).
Where two headings read alike, the source gives them in different places.

What was measured:
SMN2 = test: Splicing RT-qPCR panel, SMN2 canonical junction (CJ) mRNA; assay type: cell-based, human; conditions: Homo sapiens, read-out: SMN2 IC50 (decrease in CJ mRNA levels)
Method in brief: (§1)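 A673 or K562 cells treated 24 h at 37 °C with 11-point 3-fold dilutions, top 10 uM, DMSO ≤0.25%. Lysates read by RT-qPCR for CJ and AJ isoforms, normalized to GAPDH, GUSB or PPIA; ΔΔCt vs DMSO converted to RQ, then percent response.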

HTT = test: Splicing RT-qPCR assay, HTT mRNA canonical junction (CJ) and alternative junction (AJ); assay type: cell-based, human; conditions: Homo sapiens; for AC50: increase in AJ mRNA
Method in brief: as §1

Target C = test: Splicing RT-qPCR panel, Target C canonical junction (CJ) mRNA; assay type: cell-based, human; conditions: Homo sapiens, read-out: Target C IC50 (decrease in CJ mRNA levels)
Method in brief: as §1

[1] = Transwell assay for membrane efflux and permeability; assay type: in vitro ADME, Canine; conditions: dog; MDCK-BCRP or MDCKII-MDR1 transwell, test compound 1 μM, 2 hours at 37° C.
Method in brief: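 MDCK-BCRP or MDCKII-MDR1 monolayers grown 4-8 days on transwell supports, washed and pre-equilibrated in HBSS 30 min at 37 °C with shaking. Test compounds at 1 μM final (0.5% DMSO) in HBSS; transport incubation 2 h at 37 °C.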

[2] = gene panel, CJ qPCR, protocol of Example 142
[3] = gene panel, CJ qPCR, protocol of Example 142, read-out: HTT IC50 (decrease in CJ mRNA levels)
[4] = RT-qPCR panel, canonical junction mRNA, compound concentration having 50% response in CJ decrease
[5] = RT-qPCR panel, canonical junction mRNA, compound concentration having 50% response in CJ decrease, read-out: HTT IC50 (decrease in CJ mRNA levels)
[6] = 24 h, A673 or K562 cells, 24 hours treatment, RT-qPCR
[7] = 24 h, decrease in CJ mRNA, A673 or K562 cells, 24 hours treatment, RT-qPCR, read-out: HTT CJ IC50

| SMILES | IC50 (SMN2; [2]) | IC50 (HTT; [3]) | IC50 (Target C; [2]) | Papp at 2 h, 1 μM [1] | efflux ratio at 2 h, 1 μM [1] | IC50 (SMN2; [4]) | IC50 (HTT; [5]) | IC50 (Target C; [4]) | AC50 (HTT; [6]) | IC50 (HTT; [7]) |
| --- | --- | --- | --- | --- | --- | --- | --- | --- | --- | --- |
| CN(c1ccc(-c2ccc(-c3cn[nH]c3)c(F)n2)nn1)[C@@H]1C[C@H]2CC[C@@H](C1)N2 [Compound 922] | < 100 nM | < 100 nM | 100 to 1000 nM | < 2 ×10⁻⁶ cm/s | > 5 |  |  |  |  |  |
| CCOc1nc(-c2ccc(OC3CC(C)(C)NC(C)(C)C3)nn2)ccc1-c1cn[nH]c1 [Compound 967] | < 100 nM | < 100 nM | 100 to 1000 nM | 2 to 6 ×10⁻⁶ cm/s | 1.5 to 5 |  |  |  |  |  |
| c1cnn(-c2ccc(-c3cnc(N[C@@H]4C[C@H]5CC[C@@H](C4)N5)nn3)c3cn[nH]c23)c1 [Compound 556] |  |  |  | 2 to 6 ×10⁻⁶ cm/s | > 5 | 100 to 1000 nM | < 100 nM | 100 to 1000 nM |  |  |
| COc1nc(-c2ccc(N(C)[C@@H]3C[C@H]4CC[C@@H](C3)N4)nn2)ccc1-c1ccnc(O)c1 [Compound 961] | 100 to 1000 nM | 100 to 1000 nM | 100 to 1000 nM | < 2 ×10⁻⁶ cm/s | 1.5 to 5 |  |  |  |  |  |
| c1nc2c(-c3cn[nH]c3)ccc(-c3ccc(N[C@@H]4C[C@H]5CC[C@@H](C4)N5)nn3)c2s1 [Compound 202] |  |  |  | < 2 ×10⁻⁶ cm/s | > 5 | < 100 nM | < 100 nM | 100 to 1000 nM | < 100 nM |  |
| CC1(C)CC(Nc2ccc(-c3ccc(-c4cn[nH]c4)c4ncsc34)nn2)CC(C)(C)N1 [Compound 186] |  |  |  | < 2 ×10⁻⁶ cm/s | > 5 | < 100 nM | < 100 nM | 100 to 1000 nM | < 100 nM |  |
| CN(c1ccc(-c2ccc(-c3cn[nH]c3)c3ncsc23)nn1)C1CC(C)(C)NC(C)(C)C1 [Compound 132] |  |  |  | < 2 ×10⁻⁶ cm/s | > 5 | < 100 nM | 100 to 1000 nM | 100 to 1000 nM | 100 to 1000 nM | 100 to 1000 nM |
| Fc1ccn(-c2ccc(-c3ccc(O[C@@H]4C[C@H]5CC[C@@H](C4)N5)nn3)c3scnc23)n1 [Compound 363] |  |  |  | < 2 ×10⁻⁶ cm/s | 1.5 to 5 | < 100 nM | < 100 nM | 100 to 1000 nM | 100 to 1000 nM |  |
| CN(c1ccc(-c2ccc(-c3ccc(=O)n(C)c3)c3scnc23)nn1)C1CC(C)(C)NC(C)(C)C1 [Compound 178] |  |  |  | < 2 ×10⁻⁶ cm/s | > 5 | > 10000 nM | > 10000 nM | > 10000 nM | > 10000 nM | > 10000 nM |
| c1cnn(-c2ccc(-c3cnc(N[C@@H]4C[C@H]5CCC[C@@H](C4)N5)nn3)c3cn[nH]c23)c1 [Compound 561] |  |  |  | 2 to 6 ×10⁻⁶ cm/s | > 5 | 100 to 1000 nM | < 100 nM | 100 to 1000 nM |  |  |
| COc1cc(-c2ccc(-c3ccc(N(C)[C@@H]4C[C@H]5CC[C@@H](C4)N5)nn3)nc2OC)ncn1 [Compound 954] | 100 to 1000 nM | 1000 to 10000 nM | 1000 to 10000 nM | < 2 ×10⁻⁶ cm/s | > 5 |  |  |  |  |  |
| COc1cc(-c2ccc(-c3ccc(O[C@@H]4C[C@H]5CC[C@@H](C4)N5)nn3)c3scnc23)cnn1 [Compound 362] |  |  |  | 2 to 6 ×10⁻⁶ cm/s | > 5 | < 100 nM | < 100 nM | 100 to 1000 nM | < 100 nM |  |
| Cc1ncc(-c2ccc(-c3cnc(N(C)[C@@H]4C[C@H]5CCC[C@@H](C4)N5)nn3)c3scnc23)s1 [Compound 578] |  |  |  | < 2 ×10⁻⁶ cm/s | > 5 | < 100 nM | < 100 nM | 100 to 1000 nM |  |  |
| c1nc2c(-c3cn[nH]c3)ccc(-c3ccc(O[C@@H]4C[C@H]5CC[C@@H](C4)N5)nn3)c2s1 [Compound 184] |  |  |  | < 2 ×10⁻⁶ cm/s | > 5 | < 100 nM | 100 to 1000 nM | 100 to 1000 nM | < 100 nM | 100 to 1000 nM |
| c1nc2c(-c3cn[nH]c3)ccc(-c3ccc(N(C4CC4)C4C[C@H]5CCC[C@@H](C4)N5)nn3)c2s1 (some centres unmarked) [Compound 311] |  |  |  | < 2 ×10⁻⁶ cm/s | > 5 | < 100 nM | < 100 nM | 100 to 1000 nM | < 100 nM |  |
